Earlier results on 3 molecules are cited in PMC8369186, “Ligand-Based and Docking-Based Virtual Screening of MDM2 Inhibitors as Potent Anticancer Agents” (Computational and Mathematical Methods in Medicine, 2021).

The subject of the data set is human MDM2. Particulars: training set, cited from earlier work; for IC50: ref 24 (TS-1), 25 (TS-2), 12 (TS-3), 26 (TS-4), 8 (TS-6), 28 (TS-7), read-out: Potency human MDM2 (nM), IC50.

In the case of `O=C(NCCN1CCOCC1)c1[nH]c2cc(Cl)ccc2c1-c1c(-c2ccccc2)ncn1Cc1ccc(Cl)cc1` [TS-6], the IC50 – broadly, the concentration at which inhibition is half-maximal – is 30 nM.

Take `CCOc1cc(C(C)(C)C)ccc1C1=NC(C)(c2ccc(Cl)cc2)C(C)(c2ccc(Cl)cc2)N1C(=O)N1CCN(CCCS(C)(=O)=O)CC1` (stereo not drawn) [TS-2]: the IC50 was 18 nM.

As to `CC(C)(C)C[C@H]1N[C@@H](C(N)=O)[C@H](c2cccc(Cl)c2F)C12C(=O)Nc1cc(Cl)ccc12` (stereo partly drawn) [TS-5], the Ki (as a rule, a dissociation constant, usually derived from enzyme kinetics or from competition with a known ligand) (read-out: Potency human MDM2 (nM), Ki) is 3 nM.
